Legend:
Assay in all cases: relative viability (nuclei count vs DMSO), 5 days (fraction); higher = more cells survive
Bosutinib + Luminespib = compound: COc1cc(Nc2c(C#N)cnc3cc(OCCCN4CCN(C)CC4)c(OC)cc23)c(Cl)cc1Cl [Bosutinib] + CCNC(=O)c1noc(-c2cc(C(C)C)c(O)cc2O)c1-c1ccc(CN2CCOCC2)cc1 [Luminespib] (partner 0.01 µM)
Procedure, shortened: (§1)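 One day after seeding in 1536-well plates, lung cancer cell lines were dosed by pin tool. Dosing was either single-drug or a fixed anchor-drug dose plus five library-drug doses (not always all listed) in √10 steps. After 5 days, nuclei were stained in one fix-and-stain step and counted on 4× images, and relative viability is the nuclei count of treated wells over that of vehicle wells, given as the median of duplicate plates.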

Bosutinib + Foretinib = compound: COc1cc(Nc2c(C#N)cnc3cc(OCCCN4CCN(C)CC4)c(OC)cc23)c(Cl)cc1Cl [Bosutinib] + COc1cc2c(Oc3ccc(NC(=O)C4(C(=O)Nc5ccc(F)cc5)CC4)cc3F)ccnc2cc1OCCCN1CCOCC1 [Foretinib] (partner 0.25 µM)
Procedure, shortened: as §1

Bosutinib + OSI-027 = compound: COc1cc(Nc2c(C#N)cnc3cc(OCCCN4CCN(C)CC4)c(OC)cc23)c(Cl)cc1Cl [Bosutinib] + COc1cccc2cc(-c3nc([C@H]4CC[C@H](C(=O)O)CC4)n4ncnc(N)c34)[nH]c12 [OSI-027] (partner 0.5 µM)
Procedure, shortened: as §1

Bosutinib + Alpelisib = compound: COc1cc(Nc2c(C#N)cnc3cc(OCCCN4CCN(C)CC4)c(OC)cc23)c(Cl)cc1Cl [Bosutinib] + Cc1nc(NC(=O)N2CCC[C@H]2C(N)=O)sc1-c1ccnc(C(C)(C)C(F)(F)F)c1 [Alpelisib] (partner 2 µM)
Procedure, shortened: as §1

Bosutinib + Decitabine = compound: COc1cc(Nc2c(C#N)cnc3cc(OCCCN4CCN(C)CC4)c(OC)cc23)c(Cl)cc1Cl [Bosutinib] + Nc1ncn([C@H]2C[C@H](O)[C@@H](CO)O2)c(=O)n1 [Decitabine] (partner 2 µM)
Procedure, shortened: as §1

Cell Line | relative viability (Bosutinib + Luminespib; first compound 0.01 µM) | relative viability (Bosutinib + Luminespib; first compound 0.03162 µM) | relative viability (Bosutinib + Luminespib; first compound 0.1 µM) | relative viability (Bosutinib + Luminespib; first compound 1 µM) | relative viability (Bosutinib + Foretinib; first compound 0.01 µM) | relative viability (Bosutinib + Foretinib; first compound 0.03162 µM) | relative viability (Bosutinib + Foretinib; first compound 0.1 µM) | relative viability (Bosutinib + Foretinib; first compound 1 µM) | relative viability (Bosutinib + OSI-027; first compound 0.01 µM) | relative viability (Bosutinib + OSI-027; first compound 0.03162 µM) | relative viability (Bosutinib + OSI-027; first compound 0.1 µM) | relative viability (Bosutinib + OSI-027; first compound 1 µM) | relative viability (Bosutinib + Alpelisib; first compound 0.01 µM) | relative viability (Bosutinib + Alpelisib; first compound 0.03162 µM) | relative viability (Bosutinib + Alpelisib; first compound 0.1 µM) | relative viability (Bosutinib + Alpelisib; first compound 1 µM) | relative viability (Bosutinib + Decitabine; first compound 0.01 µM) | relative viability (Bosutinib + Decitabine; first compound 0.03162 µM) | relative viability (Bosutinib + Decitabine; first compound 0.1 µM) | relative viability (Bosutinib + Decitabine; first compound 1 µM)
NCI-H1755 | 0.465 | 0.454 | 0.45 | 0.351 | 0.974 | 0.988 | 0.983 | 0.801 | 0.786 | 0.853 | 0.803 | 0.663 | 0.916 | 0.961 | 0.998 | 0.739 | 0.639 | 0.678 | 0.713 | 0.804
SK-LU-1 | 0.199 | 0.189 | 0.212 | 0.187 | 0.841 | 0.85 | 0.813 | 0.449 | 0.335 | 0.362 | 0.331 | 0.222 | 0.949 | 1.31 | 1.12 | 0.46 | 0.646 | 0.644 | 0.637 | 0.548
NCI-H647 | 0.202 | 0.284 | 0.159 | 0.183 | 1.28 | 1.17 | 1.31 | 0.778 | 0.661 | 0.741 | 0.724 | 0.496 | 1.34 | 1.33 | 1.03 | 0.543 | 0.442 | 0.36 | 0.302 | 0.386
SW 1573 | 0.267 | 0.956 | 0.246 | 0.183 | 0.913 | 0.825 | 0.693 | 0.858 | 0.695 | 0.67 | 0.656 | 0.612 | 0.834 | 0.787 | 0.767 | 0.65 | 0.606 | 0.48 | 0.557 | 0.451
HCC-15 | 0.39 | 0.346 | 0.315 | 0.18 | 1.07 | 1.05 | 1.04 | 0.874 | 0.736 | 0.622 | 0.648 | 0.734 | 0.844 | 0.9 | 0.924 | 0.85 | 0.653 | 0.659 | 0.659 | 0.609
NCI-H2126 | 0.848 | 0.828 | 0.874 | 0.725 | 1.08 | 1.12 | 1.25 | 1.14 | 0.678 | 0.784 | 0.753 | 0.688 | 0.712 | 0.781 | 0.733 | 0.685 | 0.548 | 0.537 | 0.609 | 0.588
NCI-H2085 | 0.393 | 0.466 | 0.492 | 0.44 | 0.949 | 0.983 | 0.806 | 0.935 | 0.741 | 0.781 | 0.726 | 0.462 | 0.978 | 0.976 | 0.903 | 0.988 | 0.553 | 0.564 | 0.543 | 0.606
BEN | 0.442 | 0.282 | 0.478 | 0.434 | 0.755 | 0.637 | 0.682 | 0.516 | 0.318 | 0.313 | 0.294 | 0.261 | 0.986 | 1.04 | 0.888 | 0.669 | 0.668 | 0.752 | 0.819 | 0.668
NCI-H650 | 0.838 | 0.713 | 0.744 | 0.898 | 1.05 | 1 | 1.09 | 1.04 | 0.634 | 0.502 | 0.588 | 0.628 | 1.15 | 1.12 | 1.21 | 1.18 | 0.327 | 0.295 | 0.29 | 0.419
LCLC-103H | 0.958 | 0.933 | 1.02 | 0.975 | 0.844 | 0.674 | 0.804 | 0.878 | 0.458 | 0.438 | 0.417 | 0.496 | 0.992 | 1.06 | 0.94 | 0.871 | 0.744 | 0.792 | 0.723 | 0.69
PC-14 | 0.109 | 0.394 | 0.126 | 0.16 | 0.963 | 0.975 | 0.98 | 0.255 | 0.961 | 0.688 | 0.773 | 0.192 | 0.91 | 0.9 | 0.828 | 0.323 | 0.248 | 0.226 | 0.224 | 0.174
COR-L23 | 0.613 | 0.685 | 0.76 | 0.56 | 1.04 | 0.938 | 0.971 | 0.967 | 0.754 | 0.732 | 0.75 | 0.778 | 0.803 | 0.799 | 0.747 | 0.836 | 0.432 | 0.421 | 0.414 | 0.454
NCI-H1915 | 0.768 | 0.816 | 0.815 | 0.64 | 1.07 | 1.1 | 1.11 | 1.11 | 0.646 | 0.671 | 0.71 | 0.669 | 1.03 | 1.07 | 1.1 | 1.06 | 0.265 | 0.261 | 0.242 | 0.267

Reference: the supplement of paper PMC10307832
